Several values for one entry are separate records, joined by “and”; a condition that tells them apart may be missing. Identical values can stand only once. Like-named read-outs stand apart in the source and are kept apart here.
Key:
[1] = biological target: T1, StOASS-A (Salmonella typhimurium, UniProt P0A1E3); assay: Steady-state enzyme activity assay, discontinuous ninhydrin cysteine determination; assay type: biochemical, Salmonella enterica serovar Typhimurium; conditions: 1 mM OAS, 0.6 mM Na2S, 6 nM OASS, 100 mM HEPES pH 7.0, 1% DMSO
T1 construct: made in house; host or cells: E. coli
Experimental: (§1) StOASS-A and StOASS-B, expressed in E. coli, were purified by metal affinity chromatography as described previously. Proteins were more that 95% pure based on SDS-PAGE analysis (data not shown).
(§2) Enzyme activity under steady-state conditions was measured by a discontinuous method as described previously. Briefly, the reaction was carried out in 100 mM HEPES pH 7.0 in the presence of 6 nM OASS, 60 nM BSA to prevent enzyme adhesion to tube wall, 1 mM OAS (equal to the K m value of this subsrate), 0.6 mM Na2S (a saturating concentration), 1% DMSO and variable concentrations of inhibitor. Reaction was stopped at time intervals by the addition of acetic acid and concentration of cysteine was determined by a modification of the ninhydrin assay. The fractional velocity as a function of inhibitor concentration was determined and IC50 was calculated by the following equation: vi/v0=1/1+(I/IC50) where, v 0 is the reaction velocity in the absence of inhibitor and v i is reaction velocity in the presence of inhibitor at concentration [I].
(§3) For a competitive inhibitor against OAS the IC50 measured under these conditions is about 2⋅K d.

[2] = biological target: T1, StOASS-A; assay: Direct fluorimetric titration of PLP cofactor fluorescence (dissociation constant); assay type: binding, Salmonella enterica serovar Typhimurium; conditions: 100 mM HEPES pH 7.0, 1% DMSO, 20 °C; read-out: OASS-A Kd
Experimental: as §1
(§4) Ligand affinity was measured by direct fluorimetric titrations, monitoring the fluorescence emission spectrum of cofactor PLP upon excitation at 412 nm. 0.1–1 µM OASS was titrated by increasing concentrations of ligand in 100 mM HEPES pH 7.0, 1% DMSO, at 20 °C. The dependence of fluorescence emission intensity on the concentration of compound was fitted to a binding isotherm: I=I0+ΔI·[ligand]/Kd+[ligand] where, I is the fluorescence emission intensity at a given ligand concentration, I 0 is the fluorescence emission intensity in the absence of ligand, ΔI is the amplitude and K d is the dissociation constant. When the K d was lower than the concentration of the protein used in the assay, the dependence of the fluoresecnce emission intensity on ligand concentration was fitted to a quadratic equation that describes tight binding. The fluorescence competitive binding assay, described elsewhere, was used to evaluate whether compounds bind at the active site of the enzyme or to an allosteric site. The assay is based on the formation of a low-affinity, highly fluorescent complex between OASS and 1-ethylcyclopropane-1,2-dicarboxylic acid. Binding of a higher affinity compound to the active site displaces 1-ethylcyclopropane-1,2-dicarboxylic acid and leads to a decrease in the fluorescence emission intensity.

[3] = biological target: T2, StOASS-B (Salmonella typhimurium, UniProt P29848); assay: as above; assay type: binding
T2 construct: made in house; host or cells: E. coli
T2 sequence (P29848 1-303): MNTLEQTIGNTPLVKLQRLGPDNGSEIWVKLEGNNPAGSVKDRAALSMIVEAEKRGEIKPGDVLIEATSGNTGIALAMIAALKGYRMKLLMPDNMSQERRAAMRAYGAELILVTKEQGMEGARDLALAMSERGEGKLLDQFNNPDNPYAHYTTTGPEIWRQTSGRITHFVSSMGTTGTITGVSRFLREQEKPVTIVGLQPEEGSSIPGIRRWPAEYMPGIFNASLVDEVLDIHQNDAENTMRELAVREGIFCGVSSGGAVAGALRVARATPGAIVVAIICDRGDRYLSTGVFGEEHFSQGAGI
Experimental: as §1, §4

[4] = system: Escherichia coli ATCC25922; assay: Minimal inhibitory concentration (CLSI) in medium with limiting cysteine; assay type: cell-based; conditions: E. coli ATCC25922, medium with limiting cysteine; data not shown
Experimental: Minimal inhibitory concentration assays were performed according to the CLSI guidelines (Clinical and Laboratory Standards Institute; Performance Standards for Antimicrobial Susceptibility Testing; Twenty-Fourth Informational Supplement; CLSI document M100-S24, CLSI; 2014.). The compounds were dissolved in DMSO to obtain a stock solution 100-fold more concentrated than the desired higher concentration and then 10 serial dilutions were performed. One microliter of each dilution was transferred to the microtiter plate.
Escherichia coli ATCC25922 was grown until log phase on liquid Mueller–Hinton broth at 37 °C in a shaker at 225 rpm. Bacterial suspension was then centrifuged at 2500 rpm for 15 min and diluted with phosphate buffer to obtain a solution with a turbidity of about 0.5 McFarland. Bacterial suspension was further diluted (1:100) with fresh LB 20%. Fifty microliters of the bacterial suspension containing 10^6 CFU/mL were inoculated into each well, to obtain a final concentration of 5 × 10^5 CFU/mL. Each plate contained growth control wells and sterility check wells.
We investigated the ability of the new set of compounds to interfere with bacterial growth.

[5] = biological target: T2, StOASS-B; assay: Steady-state enzyme activity assay, discontinuous ninhydrin cysteine determination; assay type: biochemical
Experimental: as §1, §2, §3

[6] = system: E.coli; parameters: method as in manuscript in preparation; conditions: ref manuscript in preparation, cited from earlier work

T1 sequence (P0A1E3 whole entry): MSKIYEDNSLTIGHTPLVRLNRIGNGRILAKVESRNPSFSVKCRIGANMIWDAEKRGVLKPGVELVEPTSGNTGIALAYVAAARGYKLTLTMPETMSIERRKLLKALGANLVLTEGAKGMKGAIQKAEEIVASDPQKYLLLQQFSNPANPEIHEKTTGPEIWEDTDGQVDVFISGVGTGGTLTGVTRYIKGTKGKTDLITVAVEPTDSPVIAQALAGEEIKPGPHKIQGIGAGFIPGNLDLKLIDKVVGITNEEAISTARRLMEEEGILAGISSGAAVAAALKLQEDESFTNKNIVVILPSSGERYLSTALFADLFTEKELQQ

Compound | IC50 [1] | Kd [2] | Kd [3] | IC50 [5] | also measured
N#C[C@@]1(Cc2ccccc2)C[C@H]1c1ccccc1 [Compound 28, (1R,2S)-1-benzyl-2-phenylcyclopropanecarbonitrile] | > 250 µM |  |  |  | 
O=C(O)C1(Cn2cncn2)CC1c1ccccc1 (centres unmarked) [Compound 50, 1-((1H-1,2,4-triazol-1-yl)methyl)-2-phenylcyclopropane-1-carboxylic acid] |  | 18 ± 5 µM | 250 ± 14 µM |  | 
Cc1ccc(CC2(C(=O)O)CC2c2ccc(N)cc2)cc1 (centres unmarked) [Compound 12, 2-(4-aminophenyl)-1-(4-methylbenzyl)cyclopropane-1-carboxylic acid] |  | 1.4 ± 0.3 µM | 5.7 ± 0.7 µM |  | Interference with bacterial growth (MIC) [4]: none of the synthesised compounds was able to interfere significantly with bacterial growth
Cc1ccc(C[C@]2(C(=O)NCc3nccn3C)C[C@H]2c2ccccc2)cc1 [Compound 20, (1R,2S)-1-N-((1-methyl-1H-imidazol-2-yl)methyl)-1-(4-methylbenzyl)-2-phenylcyclopropane-1-carboxamide] | > 100 µM |  |  | > 100 µM | 
Cc1ccc(C[C@]2(C(=O)NCc3cccs3)C[C@H]2c2ccccc2)cc1 [Compound 19, (1R,2S)-1-(4-methylbenzyl)-2-phenyl-N-(thiophen-2-ylmethyl)cyclopropane-1-carboxamide] | > 100 µM |  |  | > 100 µM | 
O=C(O)C1(Cn2ccnc2)CC1c1ccccc1 (centres unmarked) [Compound 47, 1-((1H-imidazol-1-yl)methyl)-2-phenylcyclopropane-1-carboxylic acid] |  | 7.6 ± 0.5 µM | 397 ± 42 µM |  | 
Cc1ccc(CC2(C(=O)O)CC2c2ccc([N+](=O)[O-])cc2)cc1 (centres unmarked) [Compound 8, 1-(4-methylbenzyl)-2-(4-nitrophenyl)cyclopropane-1-carboxylic acid] |  | 61 ± 6 µM | 145 ± 2 µM |  | 
Cc1ccc(C[C@@]2(C(=O)O)C[C@H]2c2ccccc2)cc1 [II, reference compound] |  | 0.03 ± 0.01 µM | 0.5 ± 0.1 µM |  | Inhibitory activity on cell growth ([6]; E.coli, minimal medium): failed to show appreciable inhibitory activity on cell growth; MIC with permeabilizing agent ([6]; co-administration of sub-lethal concentrations of polymyxin B nonapeptide (PMBN)): led to a measurable MIC
1-(4-methylbenzyl)-2-(pyridin-4-yl)cyclopropane-1-carboxylic acid [Compound 5] |  | 0.4 ± 0.1 µM |  |  | Interference with bacterial growth (MIC) [4]: none of the synthesised compounds was able to interfere significantly with bacterial growth; Kd ([3]; 100 mM HEPES pH 7.0, 1% DMSO, 20 °C, read-out: OASS-B Kd): 6.1 ± 0.5 µM
Cc1ccc(C[C@]2(C(=O)N(C)C3CCOCC3)C[C@H]2c2ccccc2)cc1 [Compound 16, (1R,2S)-1-N-methyl-1-(4-methylbenzyl)-2-phenyl-N-(tetrahydro-2H-pyran-4-yl)cyclopropane-1-carboxamide] | 17.2 µM and 17 µM |  |  | 137 ± 10 µM | Interference with bacterial growth (MIC) [4]: none of the synthesised compounds was able to interfere significantly with bacterial growth
O=C(O)C1(Cc2ccncc2)CC1c1ccccc1 (centres unmarked) [Compound 33, 2-phenyl-1-(pyridin-4-ylmethyl)cyclopropane-1-carboxylic acid] |  | 24 ± 2 µM | 275 ± 42 µM |  | Interference with bacterial growth (MIC) [4]: none of the synthesised compounds was able to interfere significantly with bacterial growth
Cc1ccc(C[C@]2(C(=O)NCC3CCCO3)C[C@H]2c2ccccc2)cc1 (stereo partly drawn) [Compound 22, (1R,2S)-1-(4-methylbenzyl)-2-phenyl-N-((tetrahydrofuran-2-yl)methyl)cyclopropane-1-carboxamide] | > 100 µM |  |  | > 100 µM | 
C#CCNC(=O)[C@@]1(Cc2ccc(C)cc2)C[C@H]1c1ccccc1 [Compound 21, (1R,2S)-1-(4-methylbenzyl)-2-phenyl-N-(prop-2-yn-1-yl)cyclopropane-1-carboxamide] | > 100 µM |  |  | > 100 µM | 
Cc1ccc(CC2(C(=O)O)CC2c2ccc(CNC(C)C)cc2)cc1 (centres unmarked) [Compound 10, 2-(4-((isopropylamino)methyl)phenyl)-1-(4-methylbenzyl)cyclopropane-1-carboxylic acid] |  | 155 ± 5 µM |  |  | 
O=C(O)C1(Cn2cccc2)CC1c1ccccc1 (centres unmarked) [Compound 49, 1-((1H-pyrrol-1-yl)methyl)-2-phenylcyclopropane-1-carboxylic acid] |  | 0.5 ± 0.1 µM | 22 ± 2 µM |  | 
c1ccc(C[C@]2(c3nnn[nH]3)C[C@H]2c2ccccc2)cc1 [Compound 29, (1R,2S)-5-(1-benzyl-2-phenylcyclopropyl)-1H-tetrazole] |  | 90 ± 14 µM |  |  | 
Cc1ccc(C[C@]2(C(=O)NCc3ccccc3)C[C@H]2c2ccccc2)cc1 [Compound 18, (1R,2S)-1-N-benzyl-1-(4-methylbenzyl)-2-phenylcyclopropane-1-carboxamide] | > 100 µM |  |  |  | IC50 ([5]; read-out: OASS-B IC50, 1 mM OAS, 0.6 mM Na2S, 6 nM OASS, 100 mM HEPES pH 7.0, 1% DMSO): > 100 µM
CCN1CCCC1CNC(=O)[C@@]1(Cc2ccc(C)cc2)C[C@H]1c1ccccc1 (stereo partly drawn) [Compound 17, (1R,2S)-1-N-((1-ethylpyrrolidin-2-yl)methyl)-1-(4-methylbenzyl)-2-phenylcyclopropane-1-carboxamide] | > 100 µM |  |  | > 100 µM | 
O=C(O)C1(Cn2cccn2)CC1c1ccccc1 (centres unmarked) [Compound 48, 1-((1H-pyrazol-1-yl)methyl)-2-phenylcyclopropane-1-carboxylic acid] |  | 1.5 ± 0.2 µM | 96 ± 7 µM |  | 

From PMC6217552, “Refining the structure−activity relationships of 2-phenylcyclopropane carboxylic acids as inhibitors of O-acetylserine sulfhydrylase isoforms” (Journal of Enzyme Inhibition and Medicinal Chemistry, 2018)
